By inhibition is commonly meant how much of the control response was suppressed. A word on the IC50: it is the point on the concentration scale where inhibition reaches its midpoint. For orientation: Ki means the equilibrium dissociation constant of an inhibitor or competing ligand from its target. Lower therefore signals a stronger hold on the target.

The target in data set [1] is Indoleamine 2,3-dioxygenase 1 (Mus musculus) (UniProt P28776). Nature of the data set: Inhibition of mouse IDO1 overexpressed in mouse P815B cells using L-Trp as substrate assessed as kynurenine level at 22 uM by HPLC analysis relative to control. The class given is cell-based.
Sequence of Indoleamine 2,3-dioxygenase 1 (Mus musculus) (P28776 whole entry, looked up): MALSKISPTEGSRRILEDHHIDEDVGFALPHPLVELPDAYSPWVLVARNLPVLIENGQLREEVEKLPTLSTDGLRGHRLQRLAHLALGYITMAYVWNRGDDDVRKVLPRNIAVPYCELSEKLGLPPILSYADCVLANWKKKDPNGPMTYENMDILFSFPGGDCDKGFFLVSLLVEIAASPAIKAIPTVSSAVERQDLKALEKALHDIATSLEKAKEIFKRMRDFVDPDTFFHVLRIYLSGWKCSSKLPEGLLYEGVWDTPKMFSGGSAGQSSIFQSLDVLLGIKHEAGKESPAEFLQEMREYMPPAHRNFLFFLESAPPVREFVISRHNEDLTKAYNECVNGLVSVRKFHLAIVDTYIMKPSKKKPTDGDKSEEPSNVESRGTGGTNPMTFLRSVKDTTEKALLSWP
The nature of data set [2]: Cytotoxicity against mouse P815B cells assessed as cell viability at 10 uM by MTT assay relative to control. Format: cell-based. To be noted: read-out: Activity. Background: Tetrazolium dyes change colour on reduction, which living cells bring about.
Data set [3] has as its target Tryptophan 2,3-dioxygenase (Mus musculus) (UniProt P48776). To be noted: P815B, 22 uM.
Description: Inhibition of mouse TDO overexpressed in mouse P815B cells using L-Trp as substrate assessed as kynurenine level at 22 uM by HPLC analysis relative to control
Data set [4] concerns the target T1, Indoleamine 2,3-dioxygenase 1 (Homo sapiens, UniProt P14902). Nature of the data set: Inhibition of human recombinant IDO1 using L-Trp as substrate assessed as kynurenine level after 30 mins.
Data set [5] has as its target Indoleamine 2,3-dioxygenase 1 (Mus musculus) (UniProt P28776). Nature of the data set: Inhibition of mouse IDO1 overexpressed in mouse P815B cells using L-Trp as substrate assessed as kynurenine level at 10 uM by HPLC analysis relative to control. The class given is cell-based.
Data set [6] deals with Tryptophan 2,3-dioxygenase (Mus musculus) (UniProt P48776). The experiment in a line: Inhibition of mouse TDO overexpressed in mouse P815B cells using L-Trp as substrate assessed as kynurenine level at 10 uM by HPLC analysis relative to control. Format: cell-based.
Sequence of Tryptophan 2,3-dioxygenase (Mus musculus) (P48776 whole entry): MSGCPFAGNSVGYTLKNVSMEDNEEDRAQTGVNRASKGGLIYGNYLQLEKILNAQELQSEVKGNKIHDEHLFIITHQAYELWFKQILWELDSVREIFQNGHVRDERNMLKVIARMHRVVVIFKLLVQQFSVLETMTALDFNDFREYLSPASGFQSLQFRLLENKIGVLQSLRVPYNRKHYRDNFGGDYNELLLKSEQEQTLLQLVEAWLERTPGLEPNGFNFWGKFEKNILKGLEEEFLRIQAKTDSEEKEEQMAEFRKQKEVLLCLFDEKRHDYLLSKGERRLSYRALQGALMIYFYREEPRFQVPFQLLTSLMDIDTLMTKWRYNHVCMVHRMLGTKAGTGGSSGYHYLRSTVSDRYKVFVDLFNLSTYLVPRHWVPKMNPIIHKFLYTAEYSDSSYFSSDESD
In data set [7] the target is T1, Indoleamine 2,3-dioxygenase 1. The experiment in a line: Uncompetitive inhibition of hexahistidyl-tagged human IDO1.
Target sequence in this assay (P14902 whole entry): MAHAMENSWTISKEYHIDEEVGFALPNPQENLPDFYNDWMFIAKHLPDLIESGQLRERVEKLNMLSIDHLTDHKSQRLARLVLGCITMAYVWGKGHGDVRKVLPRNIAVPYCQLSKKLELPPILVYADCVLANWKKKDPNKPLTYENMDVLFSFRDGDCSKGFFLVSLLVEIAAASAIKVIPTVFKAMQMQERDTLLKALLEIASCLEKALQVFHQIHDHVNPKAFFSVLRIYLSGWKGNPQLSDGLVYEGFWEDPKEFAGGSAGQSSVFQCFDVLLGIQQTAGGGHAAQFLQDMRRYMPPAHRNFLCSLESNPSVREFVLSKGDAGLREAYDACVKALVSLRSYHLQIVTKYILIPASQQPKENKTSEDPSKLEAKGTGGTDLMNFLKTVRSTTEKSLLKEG

Calls of active or inactive are those of the source. The calls are words filed in the database; no cut-off is given here.

Take `Cn1cc(C[C@H](N)C(=O)O)c2ccccc21` [(L)-1-METHYLTRYPTOPHAN]: the inhibition in data set [1] was 14.5%. In data set [2], the viability at 10 µM is more than 90%. For the same compound, the inhibition result in data set [3] was “inactive”.

On to `COc1ccc(C2CNC3=C2C(=O)c2ccn(S(=O)(=O)c4ccc(C)cc4)c2C3=O)cc1` (configuration not stated), for which the viability at 10 µM in data set [2] was more than 90%. In data set [4], the IC50 worked out at 1.8 µM. Besides, the inhibition in data set [5] is 40.2%; in data set [6], 2.5%.

Turning to `COc1ccc(-c2c[nH]c3c2C2=NCCc4cn(S(=O)(=O)c5ccc(C)cc5)c(c42)C3=O)cc1`, the viability at 10 µM in data set [2] was more than 90%. Moreover, the concentration for half-maximal inhibition (IC50) in data set [4] is 2.2 µM. Moreover, the inhibition in data set [5] came to 32%; in data set [6], 3.1%.

In turn, `CO[C@@]12[C@H](COC(N)=O)C3=C(C(=O)C(C)=C(N)C3=O)N1C[C@@H]1N[C@@H]12` [MITOMYCIN] gave a Ki in data set [7] of 25 µM.

Consider `COc1ccc(-c2c[nH]c3c2C(=O)c2[nH]ccc2C3=O)cc1`, for which the viability at 10 µM in data set [2] was less than 50%. Also, in data set [4], the IC50 turned out to be 22.4 µM.

As for `COc1ccc(C2CNC3=C2C(=O)c2c(CCN)cn(S(=O)(=O)c4ccc(C)cc4)c2C3=O)cc1` (configuration not stated), the viability at 10 µM in data set [2] was found to be 83%. In addition, in data set [4], the half-maximal inhibitory concentration (IC50) is 2.8 µM. The inhibition in data set [5] worked out at 26.1%. In addition, the inhibition entry in data set [6] was “inactive”.

Regarding `COc1ccc(C(O)CNC2=CC(=O)c3ccn(S(=O)(=O)c4ccc(C)cc4)c3C2=O)cc1` (configuration not stated), in data set [2], the viability at 10 µM was more than 90%. In addition, in data set [4], the IC50 came to 2.5 µM. The inhibition in data set [5] amounted to 24.3%. Besides, the inhibition entry in data set [6] was “inactive”.

As for `COc1ccc(-c2c[nH]c3c2C(=O)c2cc[nH]c2C3=O)cc1`, in data set [2], the viability at 10 µM is less than 50%. In addition, the IC50 in data set [4] came out at 12.6 µM.

Regarding `O=C1c2[nH]cc3c2C(=NCC3)c2[nH]cc(-c3ccc(O)cc3)c21`, the viability at 10 µM in data set [2] is more than 90%. Also, the IC50 in data set [4] came out at 7 µM. In data set [5], the inhibition worked out at 5.3%. Besides, the inhibition entry in data set [6] was “inactive”.

Consider `O=C1c2[nH]ccc2C(=O)c2c(-c3ccc(O)cc3)c[nH]c21`, for which, in data set [2], the viability at 10 µM was more than 90%. For the same compound, in data set [4], the inhibition is less than 50%. In addition, the inhibition entry in data set [5] and in data set [6] was “inactive” in each case.

Turning to `COc1ccc(C2CNC3=C2C(=O)c2c(c(CCN)cn2S(=O)(=O)c2ccc(C)cc2)C3=O)cc1` (configuration not stated), the viability at 10 µM in data set [2] was more than 90%. Besides, in data set [4], the IC50 was 5.6 µM. Also, the inhibition in data set [5] was 40.2%; in data set [6], 4.7%.

`COc1ccc(-c2c[nH]c3c2C(=O)c2c(c(CCN)cn2S(=O)(=O)c2ccc(C)cc2)C3=O)cc1`: in data set [2], the viability at 10 µM is more than 90%. The 50% inhibitory concentration (IC50) in data set [4] came to 11.9 µM. Further, the inhibition in data set [5] turned out to be 26%. In data set [6], the inhibition result is “inactive”.

Turning to `COc1ccc(-c2c[nH]c3c2C2=NCCc4c[nH]c(c42)C3=O)cc1`, in data set [2], the viability at 10 µM is more than 90%. Also, the IC50 in data set [4] came to 0.9 µM. The inhibition in data set [5] came out at 19.4%. The inhibition entry in data set [6] is “inactive”.

`COc1ccc(-c2c[nH]c3c2C(=O)c2[nH]cc4c2C3=NCC4)cc1`: the viability at 10 µM in data set [2] was less than 50%. The IC50 in data set [4] turned out to be 7.1 µM.

Take `COc1ccc(C(O)CNC2=CC(=O)c3c(c(CCNC(=O)OC(C)(C)C)cn3S(=O)(=O)c3ccc(C)cc3)C2=O)cc1` (configuration not stated): the viability at 10 µM in data set [2] was more than 90%. The IC50 in data set [4] was 10.1 µM. In data set [5], the inhibition is 17.4%. The inhibition entry in data set [6] was “inactive”.

Consider `COc1ccc(-c2c[nH]c3c2C(=O)c2c(CCN)cn(S(=O)(=O)c4ccc(C)cc4)c2C3=O)cc1`, for which the viability at 10 µM in data set [2] was 80%. Moreover, in data set [4], the IC50 turned out to be 5.4 µM. The inhibition in data set [5] was found to be 15.6%. Also, in data set [6], the inhibition result was “inactive”.

As for `COc1ccc(C2CNC3=C2C(=O)c2c(ccn2S(=O)(=O)c2ccc(C)cc2)C3=O)cc1` (configuration not stated), the viability at 10 µM in data set [2] was more than 90%. For the same compound, the IC50 in data set [4] is 5.6 µM. Further, the results for the inhibition in data set [5] and in data set [6] were 54.2% and 3.2%, respectively.

Turning to `COc1ccc(-c2c[nH]c3c2C(=O)c2ccn(S(=O)(=O)c4ccc(C)cc4)c2C3=O)cc1`, the viability at 10 µM in data set [2] is more than 90%. Further, the values for the inhibition in data set [4] and in data set [5] were less than 50% and 19.6%, respectively. The inhibition result in data set [6] was “inactive”.

As to `COc1ccc(-c2c[nH]c3c2C(=O)c2c4c(cn2S(=O)(=O)c2ccc(C)cc2)CCN=C34)cc1`, the viability at 10 µM in data set [2] is less than 50%. Further, in data set [4], the half-inhibitory concentration (IC50) came out at 4.2 µM.

With `COc1ccc(C(O)CNC2=CC(=O)c3c(CCNC(=O)OC(C)(C)C)cn(S(=O)(=O)c4ccc(C)cc4)c3C2=O)cc1` (configuration not stated), in data set [2], the viability at 10 µM is more than 90%. Also, the IC50 in data set [4] came out at 26.9 µM. Moreover, the inhibition in data set [5] came to 31.3%. In addition, the inhibition result in data set [6] was “inactive”.

For the compound `COc1ccc(C(O)CNC2=CC(=O)c3c(ccn3S(=O)(=O)c3ccc(C)cc3)C2=O)cc1` (configuration not stated), the viability at 10 µM in data set [2] is more than 90%. For the same compound, in data set [4], the IC50 stood at 8.8 µM. Moreover, the inhibition in data set [5] is 37.3%; in data set [6] it was 1.1%.

These data come from ChEMBL document CHEMBL2331397, “Indoleamine 2,3-dioxygenase inhibitory activity of derivatives of marine alkaloid tsitsikammamine A” (Bioorg Med Chem Lett, 2013).
